From patent US20080044474A1, “Dispersions of nanoureas comprising biologically active compounds” (Bayer MaterialScience AG, priority 2006, published 2008) come the findings set out here.

Common to all, as to type: cell-based
In assay [1] the test system is Staphylococcus epidermidis (ATC 14990). In words: Agar plate inhibition halo test according to Example 5, overnight culture. As to the method:
Cells of Staphylococcus epidermidis 498 and Bacillus subtilis 168 are plated out on agar plates such that, after incubation overnight at 37° C., they have formed a visible cell lawn on the agar. […] A hole was in each case punched in the centre of the plates. […] After incubation overnight, the agar was examined for diffusing antibiotic active compounds in that the missing cell lawn around the punched-out hole can be seen (“inhibition halos”). These inhibition halos were compared with an agar plate without further additives and an agar plate with an active compound-free nanourea dispersion. A test according to Example 5 was carried out in an overnight culture of Staphylococcus epidermidis (ATC 14990). The underlying active compound-loaded dispersions F to K were in turn prepared analogously to Example 2. As comparisons L to O, aqueous solutions having various concentrations of ciprofloxacin (Cipro) were additionally tested.

The test system of assay [2] is Staphylococcus epidermidis 498. Description: Agar plate inhibition halo test of active compound-loaded nanourea dispersions. Conditions: 100 μl dialysed active compound-loaded nanourea dispersion of Example 2 (about 3% active compound on solids), incubation overnight, Müller-Hinton agar. The method, then:
(§1) Cells of Staphylococcus epidermidis 498 and Bacillus subtilis 168 are plated out on agar plates such that, after incubation overnight at 37° C., they have formed a visible cell lawn on the agar. The agar contained a complex nutrient-rich medium (Müller-Hinton medium, OD600=0.1 set; 200 μl plated out per plate, dried at room temperature for one hour). A hole was in each case punched in the centre of the plates.

In another assay the test system is Bacillus subtilis 168. Described as above. Conditions: 100 μl dialysed active compound-loaded nanourea dispersion of Example 2 (about 3% active compound on solids), incubation overnight, Müller-Hinton agar. The method, then: as §1
The mark [3] stands for this setting: active compound-loaded nanourea dispersion prepared analogously to Example 2.

As for `CC(=O)Oc1ccccc1C(=O)O` [Acetylsalicylic acid], the Inhibition halo in assay [1] (setting [3]) came to 13 mm. On to `O=C(O)c1cn(C2CC2)c2cc(N3CCNCC3)c(F)cc2c1=O` [Cipro, Ciprofloxacin], for which the Inhibition halo in assay [1] (aqueous solution, 0.001 mM (comparison O)) came out at 11 mm; in assay [1] (aqueous solution, 0.01 mM (comparison N)), 26 mm; in assay [1] (aqueous solution, 0.1 mM (comparison M)), 36 mm; in assay [1] (aqueous solution, 1 mM (comparison L)) it was 43 mm.

For `C=O` [Formaldehyde], the Inhibition halo in assay [1] (setting [3]) is given as 21 mm. In turn, `COCN(COC)c1nc(N(COC)COC)nc(N(COC)COC)n1` [Hexamethoxymethylmelamine] came in with an Inhibition halo in assay [1] (setting [3]) of 13 mm. Same read-out and setting: in the case of `O=C(O)c1ccccc1O` [Salicylic acid] it was 38 mm.

Take `O=[N+]([O-])[O-].[Ag+]` [Silver nitrate]: the “Inhibition halo (diameter minus the diameter of the punched-out hole)” value in assay [2] is given as 400 μm; in the assay with Bacillus subtilis 168, 300 μm. In assay [1] (setting [3]), Potassium iodide-iodine complex returned an Inhibition halo of 14 mm.
